How the values were obtained:
[1] = TRAP assay (quenching of ABTS+ radical cation); assay type: biochemical; details: 10 μmol compound, 5 min, absorbance 734 nm; Troxol reference
Protocol: The anti-oxidant activities of PB 141 were determined by the ability of this compound to react with pre-formed radical monocation of 2,2′-azinobis-(3-ethylbenzothiazoline)-6-sulfonic acid (ABTS^+). Data are representative of one of two independent experiments; n=3; *** P<0.001 versus Troxol.
The anti-oxidant activity of PB141 or PB157 was determined by the ability of these compounds to react with the pre-formed radical monocation of 2,2′-azinobis-(3-ethylbenzothiazoline)-6-sulfonic acid (ABTS^+). ABTS (1.8 mmol) was reacted overnight with potassium persulfate (0.63 mmol) in double distilled water, at room temperature in the dark, to generate the dark blue ABTS^+ radical cation. This radical cation has a maximum absorption at 734 nm. Immediately prior to the experiment, ABTS^+ was diluted with absolute ethanol to an absorbance of approximately 0.7 at 734 nm. PB141 or PB157 (10 μmol) was added to ABTS^+ (1 ml) and mixed by vortexing. The reaction was allowed to stabilize for 5 min and the absorbance was measured. The anti-oxidant activities of these compounds were determined by their ability to quench the color of the radical cation. Troxol (10 μmol) was used as reference standard.

[2] = FRAP assay (ferric reduction/anti-oxidant power); assay type: biochemical; details: 10 μmol compound, 5 min, 593 nm; Troxol reference
Protocol: The antioxidant activity of PB141 was determined by ferric reduction/anti-oxidant power (FRAP) assay in which the compound is reacted with ferric tripyridyltriazine complex. Data are representative of one of two independent experiments; n=3; *** P<0.001 versus Troxol.
The antioxidant activity of PB141 or PB157 was determined by ferric reduction/anti-oxidant power (FRAP) assay in which the compounds are reacted with ferric tripyridyltriazine complex. The ferric complex was prepared at room temperature by reaction of ferric chloride (16.7 mmol) and 2,4,6-trispyridyl-s-triazine (8.33 mmol) in pH 3.6 acetate buffer (0.25 M). The FRAP reagent was used immediately after preparation. PB141 or PB157 (10 μmol) was added to the FRAP reagent (1 ml) and mixed by vortexing. The reaction was allowed to stabilize for 5 min and the absorbance was measured. The antioxidant activities of these compounds were determined by the ability to reduce the ferric complex to a […] ferrous complex, monitored at 593 nm. Troxol (10 μmol) was used as reference standard.

[3] = molecular target: T1, p65 subunit of NF-κB (Mus musculus, UniProt Q04207); experiment: LPS-induced lung NF-κB p65 DNA-binding activity after nebulized delivery; assay type: in vivo, mice; details: i.t. LPS; different concentrations nebulized 30 min later for 30 min
T1 construct: Following sacrifice, nuclear proteins were isolated from lungs; from tissue; host or cells: mouse lung (nuclear proteins)
Protocol: PB141 was delivered to mice by nebulization at doses of 25 or 250 mg/kg for up to 30 days. (A) Lungs were excised, sectioned, and examined histologically for evidence of inflammation or injury. (B) Potential kidney and liver injury were assessed by serum levels of creatinine, AST, and ALT. […] Acute lung injury was induced in mice by intratracheal administration of LPS. Thirty min later PBS or varying concentrations of PB141 were delivered into cage air by nebulization. Following sacrifice, nuclear proteins were isolated from lungs and used to determine DNA-binding activity of the p65 subunit of the pro-inflammatory transcription factor NF-κB.
In other experiments, acute lung injury was induced by intratracheal (i.t.) injection of endotoxin [lipopolysaccharide (LPS)] prepared from Escherichia coli O111:B6 (Sigma-Aldrich; St. Louis, Mo.). Thirty minutes later different concentrations of PB141 in isotonic saline were nebulized and delivered into cage air for 30 min using a micropump nebulizer (Buxco Research Systems, Wilmington, N.C.) fitted at the chamber inlet and flowing at 10 L of air/min. PBS was similarly delivered as a control. Nuclear proteins were prepared from lung samples and their concentrations were determined and used to quantify DNA-binding activity of the p65 subunit of the pro-inflammatory transcription factor NF-κB.

[4] = test system: bronchial epithelial cells, THP cells, and alveolar macrophages; experiment: Cigarette smoke extract exposure of cultured cells; assay type: cell-based, humans and mice; details: pretreated 1 to 5 μM, then 10% cigarette smoke extract
Protocol: For further in vitro studies, bronchial epithelial cells, THP cells (obtained from American Type Culture Collection), and alveolar macrophages (isolated from bronchial lavage fluid of humans and mice) were cultured and exposed to 10% cigarette smoke extract (CSE) prepared by smoking two cigarettes into RPMI medium according to the Federal Trade Commission (FTC) protocol. In some experiments cells were pretreated with 1 to 5 μM PB141 before the cigarette smoke extract treatment. Pretreatment with PB141 decreased epithelial cell permeability, inflammatory chemokine and cytokine production, and ROS generation.

T1 sequence (Q04207 whole entry): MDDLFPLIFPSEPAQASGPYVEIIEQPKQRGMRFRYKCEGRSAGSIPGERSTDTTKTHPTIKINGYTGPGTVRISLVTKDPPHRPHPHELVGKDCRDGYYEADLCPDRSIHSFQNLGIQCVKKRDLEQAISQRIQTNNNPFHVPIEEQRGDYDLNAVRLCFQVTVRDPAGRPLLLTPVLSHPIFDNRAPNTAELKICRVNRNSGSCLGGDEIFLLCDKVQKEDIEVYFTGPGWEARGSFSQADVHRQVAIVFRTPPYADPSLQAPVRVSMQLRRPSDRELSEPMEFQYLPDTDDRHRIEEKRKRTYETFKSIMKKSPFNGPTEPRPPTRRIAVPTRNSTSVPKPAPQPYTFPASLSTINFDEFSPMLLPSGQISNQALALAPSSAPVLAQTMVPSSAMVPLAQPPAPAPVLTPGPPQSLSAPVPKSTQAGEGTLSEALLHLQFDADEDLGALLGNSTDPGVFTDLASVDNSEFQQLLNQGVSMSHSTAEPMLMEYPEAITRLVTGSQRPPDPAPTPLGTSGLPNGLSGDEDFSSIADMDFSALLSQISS

Compound: CC(=O)N[C@@H](CSC(CC(=O)CC(SC[C@H](NC(C)=O)C(=O)O)c1cnccn1)c1cnccn1)C(=O)O (stereo partly drawn) [PB141]
- Anti-oxidant activity (ability to quench ABTS+ radical cation) [1]: clearly demonstrated
- Antioxidant activity (reduction of ferric complex) [2]: highly significant and approximately equal
- LPS-induced upregulation of NF-κB in lung [3]: inhibited the LPS-induced upregulation of NF-κB in a concentration-dependent manner
- Inflammatory chemokine and cytokine production [4]: decreased
- Phagocytic ability of mouse and human alveolar macrophages [4]: improved
- ROS generation [4]: decreased
